SMILES strings stand for the structures. pIC50: −log10 of the molar value. Where “and” joins values, the source holds several entries; their conditions need not be identical. Equal entries are not always repeated. Entries after “also recorded” stand apart in the source; their conditions may differ.

For assay [1], the system named is IL-6 in fibroblast cells (PCS-201-012). The experiment in a line: Cytometric Bead Array, IL-6 secretion. Type of assay: cell-based, human. As to conditions: 24 h. The protocol: The normal human dermal fibroblast cell line (PCS-201-012) was cultured in DMEM blended with 10% fetal bovine serum (FBS), 10 μg/mL streptomycin, and 10 units/mol penicillin. The cells were cultured in 5% CO2 and fully humidified at 37°C. All tested compounds were dissolved at a final vehicle (DMSO) concentration of not more than 0.5% (v/v). Cells cultured in drug-free DMEM were used as controls, and cells treated with DMSO alone were used as solvent controls. All extracts (JM1–JM6) and the main components of the tested extracts (9, 12, and 22) were analyzed at the following concentrations: 10, 25, 50, 100, 200, and 300 μg/mL. The effect of the tested extracts and fractions (JM1–JM6) as well as 9, 12, and 22 on cytokine (IL-1β, IL-6 IL-8, IL-10, IL-12p70 and TNF) secretion was determined using the Cytometric Bead Array (CBA) Human Inflammatory Cytokine Kit according to the manufacturer’s protocols. After 24 h of incubation with the test samples at concentrations of 10, 25, 50, 100, 200, and 300 μg/mL, fibroblast cells were washed with PBS, trypsinized, resuspended in DMEM and centrifuged (1,200 rpm, 10 min, 4°C). The supernatant was then replaced with 50 μL of assay diluent with the addition of 50 μL of assay beads and 50 μL of PE-labeled antibodies (detection reagent) from the human inflammatory cytokine kit. Incubation was performed for 3 h at room temperature without daylight, after which the fibroblast cells were washed and centrifuged (1,200 rpm, 5 min, 4°C). The cell pellet was resuspended in 300 μL of wash buffer and then immediately subjected to analysis by FCAP Array v3 software on a BD FACSCanto II flow cytometer (both from BD Biosciences Systems, San Jose, CA, United States) calibrated with BD Cytometer Setup and Tracking beads (BD Biosciences, San Diego, CA, United States).

Assay [2] concerns collagen type I in fibroblast cells (PCS-201-012). The experiment in a line: Collagen type I biosynthesis by flow cytometry. Type of assay: cell-based, human. To be noted: for collagen type I content, median fluorescence intensity (MFI): 300 μg/mL, 24 h, control 1,507 ± 9.2. The protocol: The normal human dermal fibroblast cell line (PCS-201-012) was cultured in DMEM blended with 10% fetal bovine serum (FBS), 10 μg/mL streptomycin, and 10 units/mol penicillin. The cells were cultured in 5% CO2 and fully humidified at 37°C. All tested compounds were dissolved at a final vehicle (DMSO) concentration of not more than 0.5% (v/v). Cells cultured in drug-free DMEM were used as controls, and cells treated with DMSO alone were used as solvent controls. All extracts (JM1–JM6) and the main components of the tested extracts (9, 12, and 22) were analyzed at the following concentrations: 10, 25, 50, 100, 200, and 300 μg/mL. The effect of the tested extracts and fractions (JM1–JM6), as well as their main compounds (9, 12, and 22) on collagen type I biosynthesis was determined using a method of cytometric staining of the surface anti-collagen type I according to the manufacturer’s protocols. Fibroblasts were incubated for 24 h at 37°C with the test samples at concentrations of 10, 25, 50, 100, 200, and 300 μg/mL. Allantoin (50 μg/mL) was used as a positive control. After incubation, fibroblasts were washed with PBS, trypsinized, resuspended in DMEM and centrifuged (1,200 rpm, 10 min, 4°C). The supernatant was removed, and the cells were washed with 2 mL of stain buffer. Then, the cells were incubated for 30 min on ice with 100 µL of stain buffer and 1 µL of antibody. After complete incubation, 2 mL of stain buffer was added. After consecutive centrifugation (1,200 rpm, 10 min, 4°C), the supernatant was removed, the cells were resuspended in 300 µL of buffer and then immediately subjected to analysis on a flow cytometer (BD FACSCanto II flow cytometer, San Jose, CA, United States) calibrated with BD Cytometer Setup and Tracking beads (BD Biosciences, San Diego, CA, United States). The median fluorescence intensity was calculated using FACSDiva software (BD Biosciences Systems, San Jose, CA, United States) and analyzed by FCS Express 7 software (DeNovo Software, Pasadena, CA, United States).
A general note: In flow cytometry, cells or beads pass a laser one at a time.

Assay [3] is described as follows: Ferric reducing antioxidant potential (FRAP). To be noted: for FRAP: 1 h at 37°C, 594 nm. The protocol: Determination of the ferric reducing antioxidant potential (FRAP) was performed using a ferric reducing antioxidant power assay kit. Ten microliters of each sample (JM1–JM6, 9, 12, 22) was mixed with 190 µL of supplied reaction mix (FRAP assay buffer, FeCl3 solution, FRAP probe). The absorbance was measured after 1 h of incubation at 37°C at 594 nm using a microplate reader. A blank solution contained 10 µL of MeOH instead of extract/compound solution. For further calculations, the ferrous standard curve was evaluated. The values are given as mM ferrous equivalents. All tests were executed in triplicate.

Assay [4] can be described thus: DPPH radical-scavenging assay. To be noted: for DPPH, IC50: 30 min, absorbance 517 nm, mean ± SD; for antiradical potential in the DPPH method compared with Trolox: vs positive control Trolox IC50 58.6 ± 0.1 μg/mL. As to the method: All extracts (JM1–JM6) and main components of the tested extracts (9, 12, and 22) were isolated and identified as previously described ([Juszczak et al., 2021]). A total of 130 μL of sample solution at various concentrations was mixed with 70 μL of DPPH (0.2 mg/mL) in a 96-well plate. Then, the reaction mixture was incubated in the dark at room temperature. After 30 min, the absorbance was recorded at 517 nm using a microplate reader (BioTek Instruments microplate spectrophotometer EPOCH 2, Oxfordshire, United Kingdom). A blank solution was prepared by mixing methanol and DPPH solution. Trolox was used as a positive control. The experiment was performed in triplicate. RSA(%)=(C-S)/C×100% where C is the negative control and S is the sample. Concentration of the tested samples, which scavenges 50% of free radicals present in the solution (IC50), was calculated.
(The DPPH test is a chemical assay of radical scavenging.)

In assay [5] the target is porcine pancreatic elastase (Sus scrofa, UniProt P00772). In words: Elastase inhibitory activity. The format is biochemical. To be noted: for anti-elastase activity (in words): extracts 100–600 μg/mL, compounds 10–200 μg/mL. As to the method:
The measurement of elastase inhibition was modified slightly according to a previous method ([Wittenauer et al., 2015]). The procedure was performed in 100 mM Tris buffer (pH = 8.0). Briefly, 100 µL of extracts (JM1–JM6) (100–600 μg/mL) or compounds (9, 12, and 22) (10–200 μg/mL) and 100 µL of Tris buffer were mixed with 25 µL of porcine pancreatic elastase solution (0.05 mg/mL). Then, the mixtures were preincubated at 25°C for 5 min, and 70 µL of AAAPVN (0.4 mg/mL) was added. After another 15 min of incubation, the release of p-nitroaniline was monitored at 410 nm using a microplate reader. A blank solution was prepared by using buffer instead of sample solution. […] The calculations were performed as follows: ElInh(% )=(C-S)/C×100% where C is the negative control and S is the sample.

porcine pancreatic elastase, sequence (P00772 27-266): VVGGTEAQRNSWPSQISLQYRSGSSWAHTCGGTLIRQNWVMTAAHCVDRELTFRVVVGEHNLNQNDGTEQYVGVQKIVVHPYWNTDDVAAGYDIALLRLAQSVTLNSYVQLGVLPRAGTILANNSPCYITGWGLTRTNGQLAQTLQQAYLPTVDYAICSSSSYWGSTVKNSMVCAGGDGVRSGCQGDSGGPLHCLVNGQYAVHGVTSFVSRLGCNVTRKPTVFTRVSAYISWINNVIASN

What is called pIC50 is −log10 of the IC50, conventionally taken in molar units. `O=c1cc(-c2ccc(O)c(O)c2)oc2cc(O)cc(O)c12` [Compound 22, 5,7,3',4'-tetrahydroxyflavone]: in assay [1] (10–300 μg/mL, vs untreated control), the “IL-6 expression levels (in words)” value was “dose-dependent decrease”. Also, in assay [2] (10 μg/mL), the “collagen content in fibroblast cells (in words)” value is “decrease in collagen content”. Further, in assay [3], the “FRAP / reducing power” value is given as 60.59 ± 0.5 mM Fe^2+/mL and the FRAP was 51.81 ± 0.78 mM Fe^2+eq/mL. Further, in assay [4], the “DPPH, IC50” value is 10.6 ± 0.7 µg/mL and 10.65 ± 0.7 µg/mL; the “antiradical potential in the DPPH method compared with Trolox” value is on record as “stronger antiradical potential”. This molecule showed a pIC50 in assay [5] (Tris buffer pH 8.0, substrate AAAPVN, 410 nm) of 3.86.
On to `O=c1cc(-c2ccc(O)c(O)c2)oc2cc(O[C@@H]3O[C@H](CO)[C@@H](O)[C@H](O)[C@H]3O[C@@H]3OC[C@@H](O)[C@H](O)[C@H]3O)cc(O)c12` [Compound 9, luteolin 7-O-β-D-xylosyl-(1-2)-β-D-glucoside], for which the “concentration at which the highest increase in IL-6 secretion occurred” value in assay [1] amounted to 100 µg/mL. Also, the “collagen type I content, median fluorescence intensity (MFI)” value in assay [2] came to 1763 ± 58. Besides, the FRAP in assay [3] was 60.59 ± 0.46 mM Fe^2+eq/mL. Further, in assay [4], the “DPPH, IC50” value is 20.34 ± 0.8 µg/mL and the “antiradical potential in the DPPH method compared with Trolox” value is listed as “stronger antiradical potential”. Further, in assay [5], the “anti-elastase activity (in words)” value is “no significant inhibitory activity; also recorded: not active”.
Consider `O=c1cc(-c2ccc(O)c(O)c2)oc2cc(O[C@@H]3O[C@H](CO)[C@@H](O)[C@H](O)[C@H]3O)cc(O)c12` [Compound 12, luteolin 7-O-β-D-glucoside], for which, in assay [1], the “concentration at which the highest increase in IL-6 secretion occurred” value worked out at 100 µg/mL. The “collagen type I content, median fluorescence intensity (MFI)” value in assay [2] is 1717 ± 10.6. Further, in assay [3], the “FRAP / reducing power” value was 51.9 ± 0.5 mM Fe^2+/mL and the FRAP is reported as 51.88 ± 0.53 mM Fe^2+eq/mL. For the same molecule, in assay [4], the “DPPH, IC50” value was 16.6 ± 0.7 µg/mL and 16.59 ± 0.7 µg/mL; the “antiradical potential in the DPPH method compared with Trolox” value was “stronger antiradical potential”. Further, the “anti-elastase activity (in words)” value in assay [5] is “no significant inhibitory activity; also recorded: not active”.

For the origin of these results see article PMC9127232, “Wound Healing Properties of Jasione montana Extracts and Their Main Secondary Metabolites” (Frontiers in Pharmacology, 2022).
